Assay results reported in patent US20080269202A1, “Novel 2,3-benzodiazepine derivatives and their use as antipsychotic agents” (Teva Pharmaceutical Industries Ltd., priority 2007, published 2008).
Where two headings read alike, the source gives them in different places.

Columns and labels:
[1] = tested on: conditioned avoidance responses; assay: conditioned avoidance: pole jumping test in rats; assay type: in vivo, Long-Evans rats
From the text: For measuring the antipsychotic potential in a non-perturbed dopamine system the pole jumping assay was used (Cook, L., Catania, A. C. Fed. Proc. 1964, 23, 818.)
This method is an active avoidance learning test. Long-Evans rats, weighing 250-450 g, were used in the experiments. Rats are placed in a box (25×25×25 cm) on a grid floor in the center of which there is a pole. After a latency period, light is turned on for a given time then the floor is electrified to deliver an unpleasant footshock. Rats may learn to avoid the shock by jumping up to grasp the pole. As soon as the rat jumps up the light and shock are turned off. Each light-on period lasted for 15 s, shock time for 30 s with an intertrial interval of 15 s. 30 such trials per day were repeated during the learning period until animals reach a minimum of 80% avoidance rate. During the experimental sessions 20 trials/day were run. Test substances were administered ip. in a volume of 0.25 ml/100 g body weight. Significances were calculated by Student's t test.

[2] = molecular target: central dopaminergic receptors (Homo sapiens, UniProt P35462); assay: in vitro binding profile to central dopaminergic receptors (Table 3); conditions: human recombinant CHO cells, ligand [3H]spiperone (footnote prints D2); read-out: D3 binding
Sequence of central dopaminergic receptors (Homo sapiens, UniProt P35462) (P35462 whole entry): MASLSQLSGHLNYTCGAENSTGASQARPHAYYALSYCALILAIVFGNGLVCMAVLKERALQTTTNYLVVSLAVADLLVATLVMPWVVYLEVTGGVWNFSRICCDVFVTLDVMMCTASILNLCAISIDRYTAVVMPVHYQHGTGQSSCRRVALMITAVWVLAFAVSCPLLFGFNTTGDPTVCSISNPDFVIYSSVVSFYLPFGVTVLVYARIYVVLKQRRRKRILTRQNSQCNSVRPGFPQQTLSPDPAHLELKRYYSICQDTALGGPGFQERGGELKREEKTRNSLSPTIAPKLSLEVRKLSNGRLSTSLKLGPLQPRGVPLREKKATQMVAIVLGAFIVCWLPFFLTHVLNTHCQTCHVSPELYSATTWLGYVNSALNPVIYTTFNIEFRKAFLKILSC
From the text: (§1) The new 2,3-benzodiazepine atypical antipsychotic agents of formula (I) of the present invention influence dopaminergic neurotransmission by a unique indirect fashion, differently from both the first and second generation antipsychotics. The in vitro binding profile of these compounds (Table 3) differs from that of the first generation antipsychotics which bind to dopaminergic receptors and second generation antipsychotics, representatives of which show affinity for dopaminergic, serotonergic, or adrenergic receptors.

[3] = molecular target: central dopaminergic receptors (Homo sapiens, UniProt P21728); assay: as above; conditions: human recombinant CHO cells, ligand [3H]SCH-23390; read-out: D1 binding
Sequence of central dopaminergic receptors (Homo sapiens, UniProt P21728) (P21728 whole entry): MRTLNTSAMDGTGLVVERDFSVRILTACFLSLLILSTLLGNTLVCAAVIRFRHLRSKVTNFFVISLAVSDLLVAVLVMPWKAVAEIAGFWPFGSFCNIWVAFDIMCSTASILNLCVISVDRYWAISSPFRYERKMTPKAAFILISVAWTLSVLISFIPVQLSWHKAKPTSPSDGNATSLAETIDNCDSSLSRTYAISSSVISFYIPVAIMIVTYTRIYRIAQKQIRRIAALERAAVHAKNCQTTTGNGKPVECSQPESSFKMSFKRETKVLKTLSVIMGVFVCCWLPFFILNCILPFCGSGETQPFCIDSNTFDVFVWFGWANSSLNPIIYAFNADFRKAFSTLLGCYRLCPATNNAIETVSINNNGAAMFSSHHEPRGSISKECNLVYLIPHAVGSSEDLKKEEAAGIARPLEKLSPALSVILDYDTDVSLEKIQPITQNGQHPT
From the text: as §1

[4] = molecular target: central dopaminergic receptors (Rattus norvegicus, UniProt P61169); assay: as above; conditions: rat striatal membranes, ligand [3H]sulpirid; read-out: D2 binding
Sequence of central dopaminergic receptors (Rattus norvegicus, UniProt P61169) (P61169 whole entry): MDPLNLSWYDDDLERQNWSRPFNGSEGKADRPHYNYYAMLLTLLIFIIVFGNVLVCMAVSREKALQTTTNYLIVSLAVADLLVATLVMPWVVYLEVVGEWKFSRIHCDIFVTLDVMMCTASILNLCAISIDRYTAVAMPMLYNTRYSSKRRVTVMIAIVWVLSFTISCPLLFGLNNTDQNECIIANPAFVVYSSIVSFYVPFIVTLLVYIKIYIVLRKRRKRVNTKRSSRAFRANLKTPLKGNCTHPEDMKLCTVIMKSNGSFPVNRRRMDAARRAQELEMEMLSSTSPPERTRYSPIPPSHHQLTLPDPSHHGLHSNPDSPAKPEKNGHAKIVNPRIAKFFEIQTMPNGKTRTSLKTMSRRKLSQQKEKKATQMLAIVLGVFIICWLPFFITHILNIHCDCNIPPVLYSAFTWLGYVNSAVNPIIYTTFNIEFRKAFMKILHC
From the text: as §1

[5] = molecular target: T1, central dopaminergic receptors (Homo sapiens, UniProt P21917); assay: as above; conditions: human recombinant CHO-K1 cells, ligand [3H]spiperone; read-out: D4 binding
T1 sequence (P21917 1-419): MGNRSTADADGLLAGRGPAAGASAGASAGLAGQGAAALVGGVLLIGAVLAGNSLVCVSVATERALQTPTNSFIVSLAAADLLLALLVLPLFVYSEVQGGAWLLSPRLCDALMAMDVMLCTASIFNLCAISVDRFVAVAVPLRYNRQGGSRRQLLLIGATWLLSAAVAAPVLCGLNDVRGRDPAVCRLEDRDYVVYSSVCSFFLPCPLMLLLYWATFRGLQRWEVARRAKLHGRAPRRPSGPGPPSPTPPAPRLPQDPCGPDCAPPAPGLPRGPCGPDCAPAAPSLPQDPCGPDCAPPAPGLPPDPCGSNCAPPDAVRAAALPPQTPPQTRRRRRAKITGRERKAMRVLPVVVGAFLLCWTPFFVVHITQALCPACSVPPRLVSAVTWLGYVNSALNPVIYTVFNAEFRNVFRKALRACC
From the text: as §1

Adenosine transporter = assay: in vitro inhibition, adenosine transporter; assay type: binding; conditions: conc: 10 μM
[6] = tested on: PCP-induced hypermotility; assay: PCP-induced hypermotility (motor activity meter) in mice; assay type: in vivo; conditions: Mus musculus, read-out: PCP-hypermotility ED50 mg/kg po.
From the text: Alterations in the mesocortical dopaminergic tract are thought to be responsible for the negative symptoms of schizophrenia (flattening of affect, poverty of speech, lack of volition and drive, loss of feeling, social withdrawal and decreased spontaneous movement). The best animal model of these symptoms is the behavioral changes induced by PCP (phencyclidine). The PCP-induced stereotypy and hypermotility was investigated in mice according to Ljungberg and Ungerstedt (Ljungberg, T., Ungerstedt, U. Pharmacol. Biochem. Behav., 1985, 23, 479,) and Jawitt (Jawitt, D. C. Amer. J. Psychiatry, 1991, 145, 1301). The stereotypy experiments were carried out in male CD1 mice weighing 20-25 g. The animals were starved for 16 hours before treatment without limitation of water availability. In the stereotypy studies, 30 min before treatment, mice were individually placed into small, transparent acrylic cages for habituation. Test substances were administered orally in a volume of 0.1 ml/10 g. 30 min later mice were treated with PCP with an intraperitoneal dose of 7 mg/kg. Stereotyped behavior was observed every 5th min for 60 min and scored from 0 to 4. The scores were summed individually, averaged and compared to the control group.
The motor activity was measured in a 4-channel activity meter. The apparatus consisted of acrylic cages (40×40×32 cm) equipped with 16 pairs of infrared photocells. The photocells' beam, when broken, signaled a count, which was then recorded by a computer. A 5 mg/kg intraperitoneal dose of PCP was administered 5 min before the experiment. This dose of PCP induces 110-120% increase of the spontaneous motor activity. Test substances were administered orally 15 min before experiment, and mice were investigated individually in the experimental cages for 60 min. 10 mice/group were used. The total counts for each experimental group were compared to the vehicle treated control group.
In both studies the ED50 values were calculated by the Litchfield-Wilcoxon's method (J. Pharmacol. Exp. Ther. 1949, 96, 49).

adrenergic receptors [7] = molecular target: T2, adrenergic receptors; assay: in vitro binding profile to adrenergic receptors (Table 3); conditions: rat cerebral cortical membranes, ligand [3H]prazosin; read-out: α1 binding
T2 construct: other: rat cerebral cortical membranes, ligand [3H]prazosin
From the text: as §1

adrenergic receptors [8] = molecular target: T3, adrenergic receptors; assay: as above; conditions: rat cerebral cortical membranes, ligand [3H]yohimbine; read-out: α2 binding
T3 construct: other: rat cerebral cortical membranes, ligand [3H]yohimbine
From the text: as §1

[9] = tested on: apomorphine-induced climbing; assay: apomorphine-induced climbing test in mice; assay type: in vivo, CD1 mice; conditions: Mus musculus, read-out: Climbing ED50 (mg/kg ip.)
Protocol: Anti-apomorphine effects were investigated in the climbing test in mice mediated through the mesolimbic and stereotypy test in rats mediated through the nigrostriatal system. Conventional antipsychotics antagonize both apomorphine-induced behaviours, while known atypical antipsychotics are weaker against apomorphine stereotypy.
The climbing test was carried out according to Protais et al. (Protais, P. et al. Psychopharmacologia, 1976, 50, 1.) Stereotyped behavior was induced in food deprived (for 16 hours) male CD1 mice weighing 20-25 g body by apomorphine HCl (SIGMA) in a s.c. dose of 2 mg/kg. Mice were placed individually into cylinders having 12 cm diameter and consisting of vertical bars of 2 mm diameter where apomorphine treated animals tended to adopt a vertical position in contrary to vehicle treated controls. Test substances were applied ip. 30 min before apomorphine.
10 and 20 min after apomorphine treatment the climbing behaviour was evaluated by scores of 0-2. 10 mice/group were used. The scores of the two readings were summed individually, meaned and compared to the control. The ED50 values were calculated by Litchfield-Wilcoxon's method (Litchfield Jr. J. T., Wilcoxon, F. J. Pharmacol. Exp. Ther. 1949, 96, 49,).

[10] = mice, po. 15 min before experiment, PCP 5 mg/kg ip
[11] = mice, ip. 30 min before apomorphine 2 mg/kg s.c.

## CNC(=O)N1N=C(c2ccc(N)cc2)c2cc(OC)c(OC)cc2C[C@H]1C [Example 121]
other
  melting point: 140 to 144 °C
[1]
  MED (mg/kg ip), minimal effective dose (stat. sign.): 5 mg/kg
[2]
  Ki: > 10 µM
[3]
  Ki: > 10 µM
[4]
  Ki: > 10 µM
[5]
  Ki: > 10 µM
Adenosine transporter
  Inhibition in %, Adenosine transporter: 87%
[6]
  ED50: 0.87 mg/kg
Adrenergic receptors [7]
  Ki: > 10 µM
Adrenergic receptors [8]
  Ki: > 10 µM
[9]
  ED50: 4.31 mg/kg

## COc1cc2c(cc1OC)C(c1ccc(N)c(C)c1)=NN(c1ncon1)[C@H](C)C2 [Example 104]
[1]
  MED (mg/kg ip), minimal effective dose (stat. sign.): 15 mg/kg
[2]
  Ki: > 10 µM
[3]
  Ki: > 10 µM
[4]
  Ki: > 10 µM
[5]
  Ki: > 10 µM
Adenosine transporter
  Inhibition in %, Adenosine transporter: 96%
[6]; [10]
  ED50: 0.73 mg/kg
Adrenergic receptors [7]
  Ki: > 10 µM
Adrenergic receptors [8]
  Ki: > 10 µM
[9]; [11]
  ED50: 7.7 mg/kg

## CNC(=O)N1N=C(c2ccc(N)c(C)c2)c2cc(OC)c(OC)cc2C[C@H]1C [Example 123]
other
  melting point: 147 °C
[1]
  MED (mg/kg ip), minimal effective dose (stat. sign.): 2 mg/kg
[2]
  Ki: > 10 µM
[3]
  Ki: > 10 µM
[4]
  Ki: > 10 µM
[5]
  Ki: > 10 µM
Adenosine transporter
  Inhibition in %, Adenosine transporter: 90%
[6]
  ED50: 0.62 mg/kg
Adrenergic receptors [7]
  Ki: > 10 µM
Adrenergic receptors [8]
  Ki: > 10 µM
[9]
  ED50: 9.2 mg/kg

## COc1cc2c(cc1OC)C(c1ccc(N)c(C)c1)=NN(c1nncs1)[C@H](C)C2 [Example 110]
other
  melting point: 143 °C
[1]
  MED (mg/kg ip), minimal effective dose (stat. sign.): 2 mg/kg
[2]
  Ki: > 10 µM
[3]
  Ki: > 10 µM
[4]
  Ki: > 10 µM
[5]
  Ki: > 10 µM
Adenosine transporter
  Inhibition in %, Adenosine transporter: 94%
[6]; [10]
  ED50: 1.4 mg/kg
Adrenergic receptors [7]
  Ki: > 10 µM
Adrenergic receptors [8]
  Ki: > 10 µM
[9]; [11]
  ED50: 14.6 mg/kg
